#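 Exposure lasted 48 hours, with cells grown in 96-well plates and compounds tested at five concentrations. Abbreviation: GI50, concentration required for 50% inhibition of growth. TGI marks complete inhibition of growth.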
# Key:
# Assay in all cases: NCI anticancer screen, dose series, 48 h
# MCF7 breast = test system: MCF7 breast
# A498 renal = test system: A498 renal
# SNB-19 CNS = test system: SNB-19 CNS
# MDA-MB-231 breast = test system: MDA-MB-231 breast
# COLO 205 colon = test system: COLO 205 colon
# RXF 393 renal = test system: RXF 393 renal
# A549 NSCLC = test system: A549 NSCLC
# UACC-257 melanoma = test system: UACC-257 melanoma
# NCI-H522 lung = test system: NCI-H522 lung
# HCT-15 colon = test system: HCT-15 colon
# SW-620 colon = test system: SW-620 colon
# OVCAR-5 ovarian = test system: OVCAR-5 ovarian
# NCI/ADR-RES ovarian = test system: NCI/ADR-RES ovarian
# OVCAR-4 ovarian = test system: OVCAR-4 ovarian
# SK-OV-3 ovarian = test system: SK-OV-3 ovarian
# UO-31 renal = test system: UO-31 renal
# NCI-H460 lung = test system: NCI-H460 lung
# BT-549 breast = test system: BT-549 breast
# 786-0 renal = test system: 786-0 renal
# IGROV1 ovarian = test system: IGROV1 ovarian
# PC-3 prostate = test system: PC-3 prostate
# LOX IMVI melanoma = test system: LOX IMVI melanoma
# U251 CNS = test system: U251 CNS
# CAKI-1 renal = test system: CAKI-1 renal
# NCI-H226 lung = test system: NCI-H226 lung
# EKVX NSCLC = test system: EKVX NSCLC
# CCRF-CEM leukemia = test system: CCRF-CEM leukemia
# TK-10 renal = test system: TK-10 renal
# OVCAR-8 ovarian = test system: OVCAR-8 ovarian
# UACC-62 melanoma = test system: UACC-62 melanoma
# SF-295 CNS = test system: SF-295 CNS
# SK-MEL-28 melanoma = test system: SK-MEL-28 melanoma
# MALME-3M melanoma = test system: MALME-3M melanoma
# T-47D breast = test system: T-47D breast
# SNB-75 CNS = test system: SNB-75 CNS
# HOP-62 NSCLC = test system: HOP-62 NSCLC
# DU-145 prostate = test system: DU-145 prostate
# SR leukemia = test system: SR leukemia
# SK-MEL-2 melanoma = test system: SK-MEL-2 melanoma
# HT29 colon = test system: HT29 colon
# K-562 leukemia = test system: K-562 leukemia
# HOP-92 NSCLC = test system: HOP-92 NSCLC
# SF-268 CNS = test system: SF-268 CNS
# HCC-2998 colon = test system: HCC-2998 colon
# NCI-H23 lung = test system: NCI-H23 lung
# HS 578T breast = test system: HS 578T breast
# MDA-MB-435 = test system: MDA-MB-435
# HCT-116 colon = test system: HCT-116 colon
# HL-60(TB) leukemia = test system: HL-60(TB) leukemia
# OVCAR-3 ovarian = test system: OVCAR-3 ovarian
# RPMI-8226 leukemia = test system: RPMI-8226 leukemia
# MOLT-4 leukemia = test system: MOLT-4 leukemia
# SN12C renal = test system: SN12C renal
# ACHN renal = test system: ACHN renal
# SF-539 CNS = test system: SF-539 CNS
# SK-MEL-5 melanoma = test system: SK-MEL-5 melanoma
# M14 melanoma = test system: M14 melanoma
# KM12 colon = test system: KM12 colon
smiles,measurement,setting,value
N#Cc1ccc(N2Cc3ccccc3OC3=C2C(=O)c2c(O)ccc(O)c2C3=O)cc1,GI50,MCF7 breast,329 nM
same,TGI,MCF7 breast,2660 nM
same,GI50,A498 renal,1790 nM
same,TGI,A498 renal,4130 nM
same,GI50,SNB-19 CNS,1090 nM
same,TGI,SNB-19 CNS,5050 nM
same,GI50,MDA-MB-231 breast,242 nM
same,TGI,MDA-MB-231 breast,994 nM
same,GI50,COLO 205 colon,90.7 nM
same,TGI,COLO 205 colon,268 nM
same,GI50,RXF 393 renal,157 nM
same,TGI,RXF 393 renal,313 nM
same,GI50,A549 NSCLC,2490 nM
same,TGI,A549 NSCLC,9760 nM
same,GI50,UACC-257 melanoma,258 nM
same,TGI,UACC-257 melanoma,818 nM
same,GI50,NCI-H522 lung,33.6 nM
same,TGI,NCI-H522 lung,162 nM
same,GI50,HCT-15 colon,174 nM
same,TGI,HCT-15 colon,618 nM
same,GI50,SW-620 colon,90.6 nM
same,TGI,SW-620 colon,306 nM
same,GI50,OVCAR-5 ovarian,437 nM
same,TGI,OVCAR-5 ovarian,1580 nM
same,GI50,NCI/ADR-RES ovarian,611 nM
same,TGI,NCI/ADR-RES ovarian,6800 nM
same,GI50,OVCAR-4 ovarian,216 nM
same,TGI,OVCAR-4 ovarian,793 nM
same,GI50,SK-OV-3 ovarian,2990 nM
same,TGI,SK-OV-3 ovarian,11900 nM
same,GI50,UO-31 renal,166 nM
same,TGI,UO-31 renal,357 nM
same,GI50,NCI-H460 lung,897 nM
same,TGI,NCI-H460 lung,4230 nM
same,GI50,BT-549 breast,572 nM
same,TGI,BT-549 breast,1260 nM
same,GI50,786-0 renal,145 nM
same,TGI,786-0 renal,381 nM
same,GI50,IGROV1 ovarian,497 nM
same,TGI,IGROV1 ovarian,1360 nM
same,GI50,PC-3 prostate,357 nM
same,TGI,PC-3 prostate,1290 nM
same,GI50,LOX IMVI melanoma,166 nM
same,TGI,LOX IMVI melanoma,440 nM
same,GI50,U251 CNS,514 nM
same,TGI,U251 CNS,1710 nM
same,GI50,CAKI-1 renal,99.2 nM
same,TGI,CAKI-1 renal,366 nM
same,GI50,NCI-H226 lung,282 nM
same,TGI,NCI-H226 lung,1130 nM
same,GI50,EKVX NSCLC,818 nM
same,TGI,EKVX NSCLC,4170 nM
same,GI50,CCRF-CEM leukemia,55.6 nM
same,TGI,CCRF-CEM leukemia,391 nM
same,GI50,TK-10 renal,118 nM
same,TGI,TK-10 renal,265 nM
same,GI50,OVCAR-8 ovarian,336 nM
same,TGI,OVCAR-8 ovarian,2500 nM
same,GI50,UACC-62 melanoma,240 nM
same,TGI,UACC-62 melanoma,667 nM
same,GI50,SF-295 CNS,2120 nM
same,TGI,SF-295 CNS,6960 nM
same,GI50,SK-MEL-28 melanoma,216 nM
same,TGI,SK-MEL-28 melanoma,620 nM
same,GI50,MALME-3M melanoma,83.7 nM
same,TGI,MALME-3M melanoma,264 nM
same,GI50,T-47D breast,175 nM
same,TGI,T-47D breast,487 nM
same,GI50,SNB-75 CNS,660 nM
same,TGI,SNB-75 CNS,2680 nM
same,GI50,HOP-62 NSCLC,1290 nM
same,TGI,HOP-62 NSCLC,4990 nM
same,GI50,DU-145 prostate,307 nM
same,TGI,DU-145 prostate,919 nM
same,GI50,SR leukemia,56.3 nM
same,GI50,SK-MEL-2 melanoma,1010 nM
same,TGI,SK-MEL-2 melanoma,3800 nM
same,GI50,HT29 colon,258 nM
same,TGI,HT29 colon,875 nM
same,GI50,K-562 leukemia,71 nM
same,GI50,HOP-92 NSCLC,163 nM
same,TGI,HOP-92 NSCLC,409 nM
same,GI50,SF-268 CNS,598 nM
same,TGI,SF-268 CNS,1720 nM
same,GI50,HCC-2998 colon,762 nM
same,TGI,HCC-2998 colon,1790 nM
same,GI50,NCI-H23 lung,1320 nM
same,TGI,NCI-H23 lung,4200 nM
same,GI50,HS 578T breast,1160 nM
same,TGI,HS 578T breast,7070 nM
same,GI50,MDA-MB-435,235 nM
same,TGI,MDA-MB-435,579 nM
same,GI50,HCT-116 colon,102 nM
same,TGI,HCT-116 colon,350 nM
same,GI50,HL-60(TB) leukemia,130 nM
same,TGI,HL-60(TB) leukemia,821 nM
same,GI50,OVCAR-3 ovarian,153 nM
same,TGI,OVCAR-3 ovarian,433 nM
same,GI50,RPMI-8226 leukemia,261 nM
same,TGI,RPMI-8226 leukemia,1310 nM
same,GI50,MOLT-4 leukemia,102 nM
same,TGI,MOLT-4 leukemia,760 nM
same,GI50,SN12C renal,856 nM
same,TGI,SN12C renal,2160 nM
same,GI50,ACHN renal,54.7 nM
same,TGI,ACHN renal,160 nM
same,GI50,SF-539 CNS,564 nM
same,TGI,SF-539 CNS,1380 nM
same,GI50,SK-MEL-5 melanoma,685 nM
same,TGI,SK-MEL-5 melanoma,2260 nM
same,GI50,M14 melanoma,209 nM
same,TGI,M14 melanoma,496 nM
same,GI50,KM12 colon,1280 nM
same,TGI,KM12 colon,6100 nM
